Results published in US20100168102A9, “Amide Derivatives as Kinase Inhibitors” (Devgen NV, priority 2005, published 2010).

Key:
human ROCKα/ROCKII mix = target: T1, human ROCKα/ROCKII mix (Homo sapiens, UniProt O75116); assay: Biochemical assay for ROCK (fluorescence polarization, ROCK IMAP Kit)
T1 construct: purchased Upstate Biotechnology 14-451

PKC epsilon = target: T2, PKC epsilon (Homo sapiens, UniProt Q02156); assay: Biochemical assay for PKC epsilon (fluorescence polarization, Protein Kinase C Assay Kit, Red); details: read-out: IC50 μM PKCε
T2 construct: purchased Invitrogen P2282
T2 sequence (Q02156 1-737): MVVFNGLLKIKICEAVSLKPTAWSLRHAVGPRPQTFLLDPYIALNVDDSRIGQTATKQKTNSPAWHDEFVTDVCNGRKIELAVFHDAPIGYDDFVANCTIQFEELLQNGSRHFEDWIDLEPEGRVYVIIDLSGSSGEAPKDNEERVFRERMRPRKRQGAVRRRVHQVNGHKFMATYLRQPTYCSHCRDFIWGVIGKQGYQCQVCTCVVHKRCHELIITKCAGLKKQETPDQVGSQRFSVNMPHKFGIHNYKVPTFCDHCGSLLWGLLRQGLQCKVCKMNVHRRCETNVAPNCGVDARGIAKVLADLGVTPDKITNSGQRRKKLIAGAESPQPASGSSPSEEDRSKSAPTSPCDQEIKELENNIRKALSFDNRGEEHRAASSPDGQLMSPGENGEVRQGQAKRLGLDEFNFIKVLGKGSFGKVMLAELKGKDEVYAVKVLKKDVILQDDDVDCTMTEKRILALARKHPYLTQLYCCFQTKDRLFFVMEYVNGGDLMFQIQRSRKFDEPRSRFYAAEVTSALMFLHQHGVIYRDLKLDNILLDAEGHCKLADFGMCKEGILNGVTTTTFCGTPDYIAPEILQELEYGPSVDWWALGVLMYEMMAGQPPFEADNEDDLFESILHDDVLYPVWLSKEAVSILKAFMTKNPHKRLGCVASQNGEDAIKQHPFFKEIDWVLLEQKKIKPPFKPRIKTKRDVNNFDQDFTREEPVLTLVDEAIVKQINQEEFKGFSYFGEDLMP
Outline: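 PKC epsilon at 10 ng/ml final was preincubated 30 min at room temperature with compound in HEPES pH 7.4 with DTT and Triton X-100. ATP/protein substrate was then added in buffer with MgCl2 and CaCl2 for 80 min. The reaction was stopped with EDTA, phosphorylation was detected by fluorescence polarization with rhodamine tracer and anti-phosphoserine antibody, and IC50 values came from curve fits.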

T1 sequence (O75116 11-552 limits assumed): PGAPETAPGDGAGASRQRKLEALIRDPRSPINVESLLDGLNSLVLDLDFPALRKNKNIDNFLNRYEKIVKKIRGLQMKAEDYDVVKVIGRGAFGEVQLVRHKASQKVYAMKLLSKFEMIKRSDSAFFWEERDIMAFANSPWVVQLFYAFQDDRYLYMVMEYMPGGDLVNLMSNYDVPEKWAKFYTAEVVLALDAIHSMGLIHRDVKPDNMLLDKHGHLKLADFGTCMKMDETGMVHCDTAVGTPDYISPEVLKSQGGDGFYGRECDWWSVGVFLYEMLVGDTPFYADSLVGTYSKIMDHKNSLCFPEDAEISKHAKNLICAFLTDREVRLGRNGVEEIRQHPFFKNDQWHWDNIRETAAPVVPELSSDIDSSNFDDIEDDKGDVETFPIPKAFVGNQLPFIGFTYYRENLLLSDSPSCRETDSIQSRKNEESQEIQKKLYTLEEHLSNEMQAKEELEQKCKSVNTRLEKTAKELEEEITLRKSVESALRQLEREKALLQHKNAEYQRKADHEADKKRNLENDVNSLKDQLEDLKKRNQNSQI

IC50 (human ROCKα/ROCKII mix)	IC50 (PKC epsilon)	Structure (SMILES)
0.5 to 5 µM	5 to 50 µM	NC(c1ccc(C(=O)Nc2ccncc2)cc1)C1CCCN1C(=O)Cc1cncc(Br)c1 (centres unmarked) [Compound 543, 4-(Amino-{1-[2-(5-bromo-pyridin-3-yl)-acetyl]-pyrrolidin-2-yl}-methyl)-N-pyridin-4-yl-benzamide]
0.5 to 5 µM	0.5 to 5 µM	NC(c1ccc(C(=O)Nc2ccncc2)cc1)C1CCCN1C(=O)Cc1c[nH]c2ccccc12 (centres unmarked) [Compound 544, 4-{Amino-[1-(2-1H-indol-3-yl-acetyl)-pyrrolidin-2-yl]-methyl}-N-pyridin-4-yl-benzamide]
0.5 to 5 µM	0.5 to 5 µM	NC(c1ccc(C(=O)Nc2ccncc2)cc1)C1CCCN1C(=O)Cc1csc(-c2ccccc2)n1 (centres unmarked) [Compound 546, 4-(Amino-{1-[2-(2-phenyl-thiazol-4-yl)-acetyl]-pyrrolidin-2-yl}-methyl)-N-pyridin-4-yl-benzamide]
0.05 to 0.5 µM	5 to 50 µM	NC(c1ccc(C(=O)Nc2ccncc2)cc1)C1CCCN1C(=O)Cc1cccs1 (centres unmarked) [Compound 547, 4-{Amino-[1-(2-thiophen-2-yl-acetyl)-pyrrolidin-2-yl]-methyl}-N-pyridin-4-yl-benzamide]
0.5 to 5 µM	5 to 50 µM	NC(c1ccc(C(=O)Nc2ccncc2)cc1)C1CCCN1C(=O)C1(c2cccs2)CC1 (centres unmarked) [Compound 549, 4-{Amino-[1-(1-thiophen-2-yl-cyclopropanecarbonyl)-pyrrolidin-2-yl]-methyl}-N-pyridin-4-yl-benzamide]
0.5 to 5 µM	5 to 50 µM	NC(c1ccc(C(=O)Nc2ccncc2)cc1)C1CCCN1C(=O)C1(c2ccsc2)CC1 (centres unmarked) [Compound 551, 4-{Amino-[1-(1-thiophen-3-yl-cyclopropanecarbonyl)-pyrrolidin-2-yl]-methyl}-N-pyridin-4-yl-benzamide]
0.05 to 0.5 µM	5 to 50 µM	NC(c1ccc(C(=O)Nc2ccncc2)cc1)C1CCCN1C(=O)C1Cc2ccccc21 (centres unmarked) [Compound 552, 4-{Amino-[1-(bicyclo[4.2.0]octa-1,3,5-triene-7-carbonyl)-pyrrolidin-2-yl]-methyl}-N-pyridin-4-yl-benzamide]
0.5 to 5 µM	0.5 to 5 µM	NC(c1ccc(C(=O)Nc2ccncc2)cc1)C1CCCN1C(=O)C(c1ccccc1)C1CCCCC1 (centres unmarked) [Compound 555, 4-{Amino-[1-(2-cyclohexyl-2-phenyl-acetyl)-pyrrolidin-2-yl]-methyl}-N-pyridin-4-yl-benzamide]
0.5 to 5 µM	5 to 50 µM	NC(c1ccc(C(=O)Nc2ccncc2)cc1)C1CCCN1C(=O)C(c1ccccc1)C1CCCC1 (centres unmarked) [Compound 556, 4-{Amino-[1-(2-cyclopentyl-2-phenyl-acetyl)-pyrrolidin-2-yl]-methyl}-N-pyridin-4-yl-benzamide]
0.05 to 0.5 µM	0.5 to 5 µM	NC(c1ccc(C(=O)Nc2ccncc2)cc1)C1CCCN1C(=O)Cc1cccc(Br)c1 (centres unmarked) [Compound 557, 4-(Amino-{1-[2-(3-bromo-phenyl)-acetyl]-pyrrolidin-2-yl}-methyl)-N-pyridin-4-yl-benzamide]
0.05 to 0.5 µM	0.5 to 5 µM	NC(c1ccc(C(=O)Nc2ccncc2)cc1)C1CCCN1C(=O)Cc1ccc(Br)cc1 (centres unmarked) [Compound 558, 4-(Amino-{1-[2-(4-bromo-phenyl)-acetyl]-pyrrolidin-2-yl}-methyl)-N-pyridin-4-yl-benzamide]
0.5 to 5 µM	5 to 50 µM	NC(c1ccc(C(=O)Nc2ccncc2)cc1)C1CCCN1C(=O)Cc1ccc(C(F)(F)F)cc1 (centres unmarked) [Compound 559, 4-(Amino-{1-[2-(4-trifluoromethyl-phenyl)-acetyl]-pyrrolidin-2-yl}-methyl)-N-pyridin-4-yl-benzamide]
0.5 to 5 µM	5 to 50 µM	NC(c1ccc(C(=O)Nc2ccncc2)cc1)C1CCCN1C(=O)Cc1cccc(Cl)c1 (centres unmarked) [Compound 560, 4-(Amino-{1-[2-(3-chloro-phenyl)-acetyl]-pyrrolidin-2-yl}-methyl)-N-pyridin-4-yl-benzamide]
0.5 to 5 µM	0.5 to 5 µM	NC(c1ccc(C(=O)Nc2ccncc2)cc1)C1CCCN1C(=O)Cc1ccc(Cl)cc1 (centres unmarked) [Compound 561, 4-(Amino-{1-[2-(4-chloro-phenyl)-acetyl]-pyrrolidin-2-yl}-methyl)-N-pyridin-4-yl-benzamide]
0.5 to 5 µM	0.5 to 5 µM	CC(C)C(C(=O)N1CCCC1C(N)c1ccc(C(=O)Nc2ccncc2)cc1)c1ccc(Cl)cc1 (centres unmarked) [Compound 562, 4-(Amino-{1-[2-(4-chloro-phenyl)-3-methyl-butyryl]-pyrrolidin-2-yl}-methyl)-N-pyridin-4-yl-benzamide]
0.5 to 5 µM	0.5 to 5 µM	CC(C)(C(=O)N1CCCC1C(N)c1ccc(C(=O)Nc2ccncc2)cc1)c1ccc(Cl)cc1 (centres unmarked) [Compound 563, 4-(Amino-{1-[2-(4-chloro-phenyl)-2-methyl-propionyl]-pyrrolidin-2-yl}-methyl)-N-pyridin-4-yl-benzamide]
0.5 to 5 µM	0.5 to 5 µM	NC(c1ccc(C(=O)Nc2ccncc2)cc1)C1CCCN1C(=O)C1(c2ccc(Cl)cc2)CC1 (centres unmarked) [Compound 564, 4-(Amino-{1-[1-(4-chloro-phenyl)-cyclopropanecarbonyl]-pyrrolidin-2-yl}-methyl)-N-pyridin-4-yl-benzamide]
0.5 to 5 µM	0.5 to 5 µM	NC(c1ccc(C(=O)Nc2ccncc2)cc1)C1CCCN1C(=O)C1(c2ccc(Cl)cc2)CCC1 (centres unmarked) [Compound 565, 4-(Amino-{1-[1-(4-chloro-phenyl)-cyclobutanecarbonyl]-pyrrolidin-2-yl}-methyl)-N-pyridin-4-yl-benzamide]
0.5 to 5 µM	0.5 to 5 µM	NC(c1ccc(C(=O)Nc2ccncc2)cc1)C1CCCN1C(=O)C1(c2ccc(Cl)cc2)CCCC1 (centres unmarked) [Compound 566, 4-(Amino-{1-[1-(4-chloro-phenyl)-cyclopentanecarbonyl]-pyrrolidin-2-yl}-methyl)-N-pyridin-4-yl-benzamide]
0.05 to 0.5 µM	5 to 50 µM	NC(c1ccc(C(=O)Nc2ccncc2)cc1)C1CCCN1C(=O)Cc1ccccc1F (centres unmarked) [Compound 567, 4-(Amino-{1-[2-(2-fluoro-phenyl)-acetyl]-pyrrolidin-2-yl}-methyl)-N-pyridin-4-yl-benzamide]
0.5 to 5 µM	5 to 50 µM	NC(c1ccc(C(=O)Nc2ccncc2)cc1)C1CCCN1C(=O)Cc1cccc(F)c1 (centres unmarked) [Compound 569]
0.5 to 5 µM	0.5 to 5 µM	NC(c1ccc(C(=O)Nc2ccncc2)cc1)C1CCCN1C(=O)C1(c2cccc(F)c2)CCCC1 (centres unmarked) [Compound 570, 4-(Amino-{1-[1-(3-fluoro-phenyl)-cyclopentanecarbonyl]-pyrrolidin-2-yl}-methyl)-N-pyridin-4-yl-benzamide]
0.5 to 5 µM	5 to 50 µM	COc1ccc(CC(=O)N2CCCC2C(N)c2ccc(C(=O)Nc3ccncc3)cc2)cc1F (centres unmarked) [Compound 571, 4-(Amino-{1-[2-(3-fluoro-4-methoxy-phenyl)-acetyl]-pyrrolidin-2-yl}-methyl)-N-pyridin-4-yl-benzamide]
0.5 to 5 µM	5 to 50 µM	NC(c1ccc(C(=O)Nc2ccncc2)cc1)C1CCCN1C(=O)Cc1ccc(F)cc1 (centres unmarked) [Compound 572, 4-(Amino-{1-[2-(4-fluoro-phenyl)-acetyl]-pyrrolidin-2-yl}-methyl)-N-pyridin-4-yl-benzamide]
0.5 to 5 µM	0.5 to 5 µM	CC(C)(C(=O)N1CCCC1C(N)c1ccc(C(=O)Nc2ccncc2)cc1)c1ccc(F)cc1 (centres unmarked) [Compound 573, 4-(Amino-{1-[2-(4-fluoro-phenyl)-2-methyl-propionyl]-pyrrolidin-2-yl}-methyl)-N-pyridin-4-yl-benzamide]
